Experimental data as given in US12552792B2, “Solid forms of an FGFR inhibitor and processes for preparing the same” (Incyte Corporation, priority 2018, dated 2026).

Test: Competitive slurry experiments with mixed Compound 1 polymorphs (XRPD)
Assay type: physicochemical
Conditions: for Solid State Form after competitive slurry: saturated Form I solution + 5 mg each of Form I through Form XXVI, stirred overnight, XRPD; for Competitive slurry result (form by XRPD): DCM/MeOH (9:1, 0.6 mL), 5 mg each of Form I through Form XXVI
Description: To evaluate the transformation of solid forms of Compound 1, competitive slurry experiments were performed as follows. To the saturated solution of Form I in the solvent as listed in Table 11 was added Form I (5 mg), then 5 mg each of Form II through Form XXVI.
The slurry was stirred overnight, filtered and analyzed by XRPD.
A competitive slurry experiment was conducted in dichloromethane/methanol (9/1) according to the procedure in Table 12. The mixture of forms (Form I through Form XXVI) was converted to Form II after 15 min as shown by XRPD at various time points including 15 mins, 1 h, 18 h and 3 days, which indicated the Form II was consistently obtained.

In the case of CCN1C(=O)N(c2c(F)c(OC)cc(OC)c2F)Cc2cnc3[nH]c(CN4CCOCC4)cc3c21 [Compound 1, 3-(2,6-difluoro-3,5-dimethoxyphenyl)-1-ethyl-8-(morpholin-4-ylmethyl)-1,3,4,7-tetrahydro-2H-pyrrolo[3′,2′:5,6]pyrido[4,3-d]pyrimidin-2-one], the “Solid State Form after competitive slurry” value (shortened to “Solid State Form”) (Acetonitrile (1.7 mL)) is reported as “Form I”, the “Competitive slurry result (form by XRPD)” value (stirred for 15 min) is reported as “Form II” and the “Competitive slurry result (form by XRPD)” value (stirred for 60 min) is reported as “Form II”. The “Competitive slurry result (form by XRPD)” value (stirred for 18 h) was “Form II”, the “Competitive slurry result (form by XRPD)” value (stirred for 3 days) was “Form II” and the “Solid State Form” value (Ethanol (1.7 mL)) was “Form I”. For the same compound, the “Solid State Form” value (Iso-propanol (1.7 mL)) was “Form I”.
